# Where a name gives a salt, the structure may show the parent alone.
# Test system: Cellular Release of Amyloid Peptide 1-40
# Experiment: Test 4: Inhibition of Cellular Release of Amyloid Peptide 1-40
# Assay type: cell-based, Chinese hamster
# Conditions: Cricetulus griseus, 24 h; read-out: Amyloid-β1-40 release IC50
# Method: Chinese hamster ovary cells are transfected with the human gene for amyloid precursor protein. The cells are plated at a density of 8000 cells/well into 96-well microtiter plates and cultivated for 24 hours in DMEM cell culture medium containing 10% FCS. The test compound is added to the cells at various concentrations, and the cells are cultivated for 24 hours in the presence of the test compound.
row,IC50 [nM],Structure (SMILES)
1,110,"[2H]c1nc(C(=O)Nc2cccc([C@]3(C)CO[C@@](C)(C(F)(F)F)C(N)=N3)n2)c(C([2H])([2H])[2H])c([2H])c1Cl [Example 21, 5-Chloro-4,6-dideuterio-3-trideuteriomethyl-pyridine-2-carboxylic acid [6-((3R,6R)-5-amino-3,6-dimethyl-6-trifluoromethyl-3,6-dihydro-2H-[1,4]oxazin-3-yl)-pyridin-2-yl]-amide]"
2,130,"Cc1cnc(C(=O)Nc2ccc(F)c([C@]3(C)CO[C@@](C)(C(F)(F)F)C(N)=N3)n2)cn1 [Example 33, 5-Methyl-pyrazine-2-carboxylic acid [6-((3R,6R)-5-amino-3,6-dimethyl-6-trifluoromethyl-3,6-dihydro-2H-[1,4]oxazin-3-yl)-5-fluoro-pyridin-2-yl]amide]"
3,5,"Cc1cc(C#N)cnc1C(=O)Nc1ccc(F)c([C@]2(C(F)F)COCC(N)=N2)n1 [Example 38, 5-Cyano-3-methyl-pyridine-2-carboxylic acid [6-((R)-5-amino-3-difluoromethyl-3,6-dihydro-2H-[1,4]oxazin-3-yl)-5-fluoro-pyridin-2-yl]-amide]"
4,280,"Cc1cc(C#N)cnc1C(=O)Nc1ccc(F)c([C@@]2(C)CO[C@@](C)(C(F)(F)F)C(N)=N2)n1 [Example 12, 5-Cyano-3-methyl-pyridine-2-carboxylic Acid [6-((3S,6R)-5-amino-3,6-dimethyl-6-trifluoromethyl-3,6-dihydro-2H-[1,4]oxazin-3-yl)-5-fluoro-pyridin-2-yl]-amide]"
5,4800,"Cc1cc(C#N)cnc1C(=O)Nc1cc([C@@]2(C)CO[C@@](C)(C(F)(F)F)C(N)=N2)c(F)cn1 [Example 17, 5-Cyano-3-methyl-pyridine-2-carboxylic acid [4-((3S,6R)-5-amino-3,6-dimethyl-6-trifluoromethyl-3,6-dihydro-2H-[1,4]oxazin-3-yl)-5-fluoro-pyridin-2-yl]-amide]"
6,290,"Cc1cc(C#N)cnc1C(=O)Nc1ccc(F)c([C@@]2(C(F)F)COCC(N)=N2)n1 [Example 39, 5-Cyano-3-methyl-pyridine-2-carboxylic acid [6-((S)-5-amino-3-difluoromethyl-3,6-dihydro-2H-[1,4]oxazin-3-yl)-5-fluoro-pyridin-2-yl]-amide]"
7,29,"C[C@@]1(c2cccc(NC(=O)c3ncc(Br)cc3Cl)n2)CO[C@@](C)(C(F)(F)F)C(N)=N1 [Example 22, 5-Bromo-3-chloro-pyridine-2-carboxylic acid [6-((3R,6R)-5-amino-3,6-dimethyl-6-trifluoromethyl-3,6-dihydro-2H-[1,4]oxazin-3-yl)-pyridin-2-yl]-amide]"
8,3600,"C[C@@]1(c2nc(NC(=O)c3nc4ccn(CC(F)F)c4nc3N)ccc2F)CO[C@@](C)(C(F)(F)F)C(N)=N1 [Example 45, 3-Amino-5-(2,2-difluoro-ethyl)-5H-pyrrolo[2,3-b]pyrazine-2-carboxylic acid [6-((3R,6R)-5-amino-3,6-dimethyl-6-trifluoromethyl-3,6-dihydro-2H-[1,4]oxazin-3-yl)-5-fluoro-pyridin-2-yl]-amide]"
9,140,"C[C@@]1(c2cc(NC(=O)c3ncc(C#N)cc3Cl)ncc2F)CO[C@@](C)(C(F)(F)F)C(N)=N1 [Example 35, 3-Chloro-5-cyano-pyridine-2-carboxylic acid [4-((3R,6R)-5-amino-3,6-dimethyl-6-trifluoromethyl-3,6-dihydro-2H-[1,4]oxazin-3-yl)-5-fluoro-pyridin-2-yl]-amide]"
10,2,"Cc1cc(C#N)cnc1C(=O)Nc1ccc(F)c([C@]2(C)CO[C@@](C)(C(F)(F)F)C(N)=N2)n1 [Example 11, 5-Cyano-3-methyl-pyridine-2-carboxylic Acid [6-((3R,6R)-5-amino-3,6-dimethyl-6-trifluoromethyl-3,6-dihydro-2H-[1,4]oxazin-3-yl)-5-fluoro-pyridin-2-yl]-amide]"
11,370,"COCCn1ccc2nc(C(=O)Nc3ccc(F)c([C@]4(C)CO[C@@](C)(C(F)(F)F)C(N)=N4)n3)c(N)nc21 [Example 43, 3-Amino-5-(2-methoxy-ethyl)-5H-pyrrolo[2,3-b]pyrazine-2-carboxylic acid [6-((3R,6R)-5-amino-3,6-dimethyl-6-trifluoromethyl-3,6-dihydro-2H-[1,4]oxazin-3-yl)-5-fluoro-pyridin-2-yl]amide]"
12,15,"NC1=NC(CF)(c2cc(NC(=O)c3ccc(Br)cn3)cnc2Cl)COC1 (stereo not drawn) [Example 18, 5-Bromo-pyridine-2-carboxylic acid [5-(5-amino-3-fluoromethyl-3,6-dihydro-2H-[1,4]oxazin-3-yl)-6-chloro-pyridin-3-yl]-amide hydrochloride]"
13,5,"C[C@@]1(c2cccc(NC(=O)c3ncc(C#N)cc3Cl)n2)CO[C@@](C)(C(F)(F)F)C(N)=N1 [Example 20, 3-Chloro-5-cyano-pyridine-2-carboxylic acid [6-((3R,6R)-5-amino-3,6-dimethyl-6-trifluoromethyl-3,6-dihydro-2H-[1,4]oxazin-3-yl)-pyridin-2-yl]-amide]"
14,12,"N#Cc1cnc(C(=O)Nc2ccc(F)c([C@]3(C(F)F)COCC(N)=N3)n2)c(Cl)c1 [Example 40, 3-Chloro-5-cyano-pyridine-2-carboxylic acid [6-((R)-5-amino-3-difluoromethyl-3,6-dihydro-2H-[1,4]oxazin-3-yl)-5-fluoro-pyridin-2-yl]-amide]"

row,Structure (SMILES),IC50 [nM]
1,"C[C@]1(c2cccc(NC(=O)c3ccc(C#N)cn3)n2)CO[C@@](C)(C(F)(F)F)C(N)=N1 [Example 9, 5-Cyano-pyridine-2-carboxylic acid [6-((3S,6R)-5-amino-3,6-dimethyl-6-trifluoromethyl-3,6-dihydro-2H-[1,4]oxazin-3-yl)-pyridin-2-yl]-amide]",1900
2,"Cc1cc(C#N)cnc1C(=O)Nc1cccc(C2(CF)COCC(N)=N2)n1 (stereo not drawn) [Example 5, 5-Cyano-3-methyl-pyridine-2-carboxylic acid [6-(5-amino-3-fluoromethyl-3,6-dihydro-2H-[1,4]oxazin-3-yl)-pyridin-2-yl]-amide]",40
3,"[2H]c1nc(C(=O)Nc2cccc(C3(CF)COCC(N)=N3)n2)c(C([2H])([2H])[2H])c([2H])c1Cl (stereo not drawn) [Example 6, 4,6-Dideutero-5-chloro-3-trideuteromethyl-pyridine-2-carboxylic acid [6-(5-amino-3-fluoromethyl-3,6-dihydro-2H-[1,4]oxazin-3-yl)-pyridin-2-yl]-amide]",63
4,"C[C@@]1(c2cccc(NC(=O)c3ccc(Br)cn3)n2)COCC(N)=N1 [Example 1, 5-Bromo-pyridine-2-carboxylic acid [6-((R)-5-amino-3-methyl-3,6-dihydro-2H-[1,4]-oxazin-3-yl)-pyridin-2-yl]-amide]",41
5,"NC1=NC(CF)(c2cccc(NC(=O)c3ccc(Br)cn3)n2)COC1 (stereo not drawn) [Example 4, 5-Bromo-pyridine-2-carboxylic acid [6-(5-amino-3-fluoromethyl-3,6-dihydro-2H-[1,4]oxazin-3-yl)-pyridin-2-yl]-amide]",98
6,"C[C@@]1(c2nc(NC(=O)c3ncc(OCCCF)nc3N)ccc2F)CO[C@@](C)(C(F)(F)F)C(N)=N1 [Example 42, 3-Amino-5-(3-fluoro-propoxy)-pyrazine-2-carboxylic acid [6-((3R,6R)-5-amino-3,6-dimethyl-6-trifluoromethyl-3,6-dihydro-2H-[1,4]oxazin-3-yl)-5-fluoro-pyridin-2-yl]amide]",72
7,"COc1cnc(C(=O)Nc2ccc(F)c([C@]3(C)CO[C@@](C)(C(F)(F)F)C(N)=N3)n2)c(C)c1 [Example 25, 5-Methoxy-3-methyl-pyridine-2-carboxylic acid [6-((3R,6R)-5-amino-3,6-dimethyl-6-trifluoromethyl-3,6-dihydro-2H-[1,4]oxazin-3-yl)-5-fluoro-pyridin-2-yl]amide]",76
8,"Cc1cc(OCF)cnc1C(=O)Nc1ccc(F)c([C@]2(C)CO[C@@](C)(C(F)(F)F)C(N)=N2)n1 [Example 32, 5-Fluoromethoxy-3-methyl-pyridine-2-carboxylic acid [6-((3R,6R)-5-amino-3,6-dimethyl-6-trifluoromethyl-3,6-dihydro-2H-[1,4]oxazin-3-yl)-5-fluoro-pyridin-2-yl]amide]",26
9,"NC1=NC(CF)(c2cccc(NC(=O)c3ccc(Cl)cn3)n2)COC1 (stereo not drawn) [Example 3, 5-{6-[(5-Chloro-pyridine-2-carbonyl)-amino]-pyridin-2-yl}-5-fluoromethyl-5,6-dihydro-2H-[1,4]oxazin-3-yl-ammonium Trifluoro Acetate]",140
10,"C[C@@]1(c2cccc(NC(=O)c3ncc(C#N)cc3N)n2)CO[C@@](C)(C(F)(F)F)C(N)=N1 [Example 19, 3-Amino-5-cyano-pyridine-2-carboxylic acid [6-((3R,6R)-5-amino-3,6-dimethyl-6-trifluoromethyl-3,6-dihydro-2H-[1,4]oxazin-3-yl)-pyridin-2-yl]-amide]",48
11,"Cc1cc(C#N)cnc1C(=O)Nc1cccc([C@]2(C)CO[C@@](C)(C(F)(F)F)C(N)=N2)n1 [Example 8, 5-Cyano-3-methyl-pyridine-2-carboxylic Acid [6-((3R,6R)-5-amino-3,6-dimethyl-6-trifluoro-methyl-3,6-dihydro-2H-[1,4]oxazin-3-yl)-pyridin-2-yl]-amide]",6
12,"Cc1cc(C#N)cnc1C(=O)Nc1cc([C@]2(C)COC(CF)(CF)C(N)=N2)c(F)cn1 [Example 37, 5-Cyano-3-methyl-pyridine-2-carboxylic acid [4-((R)-5-amino-6,6-bis-fluoromethyl-3-methyl-3,6-dihydro-2H-[1,4]oxazin-3-yl)-5-fluoro-pyridin-2-yl]-amide]",83
13,"Cc1cc(OC(F)F)cnc1C(=O)Nc1ccc(F)c([C@]2(C)CO[C@@](C)(C(F)(F)F)C(N)=N2)n1 [Example 29, 5-Difluoromethoxy-3-methyl-pyridine-2-carboxylic acid [6-((3R,6R)-5-amino-3,6-dimethyl-6-trifluoromethyl-3,6-dihydro-2H-[1,4]oxazin-3-yl)-5-fluoro-pyridin-2-yl]amide]",24

# From US10683287B2, “Heterocyclic derivatives and their use in the treatment of neurological disorders” (Novartis AG, priority 2011, dated 2020)
